Legend:
[1] = Evaporation resistance of lipid films (modified Langmuir-Schaefer desiccant cartridge method); assay type: physicochemical; details: lipid film on PBS, 35 °C; compressed to Mma 2-40 Å^2/molecule
Experimental: (§1) The lipid species were either synthesized as described above or obtained from commercial sources (e.g. Nu-Check-Prep, Elysian, MN) and studied on their own at first. A wide range of lipid mixtures were prepared by weighing selected compounds at specific ratios and further dilution in chloroform to obtain selected concentrations. A 2 mM concentration of the corresponding mixtures was used in the surface potential and pressure measurements and a 5 mM concentration in the evaporation resistance measurements discussed herein.
Evaporation resistance is a property of the lipid film residing on top or above an aqueous surface, independent of the measurement method and conditions of the measurement. […] Evaporation resistance of the lipid film can be determined, for example, by measuring the evaporative flux from the aqueous surface without the lipid layer, Jw, and with a lipid film present, Jf. […] The lipid film evaporation resistance can be expressed as a function of measured quantities as rm=Δc(1/Jf−1/Jw).
In this example, the evaporation resistance was determined according to the method originally developed by Langmuir et al. (Langmuir, I. and Schaefer, V., J. 1943, J. Franklin Inst., Vol. 235, 119-162) although with certain modifications (as set out in Bland et al., Langmuir, 2019, 35, 3545-3552 (Supp. Info.). […]

[2] = Surface pressure and surface potential isotherms and Brewster angle microscopy at the air-buffer interface; assay type: physicochemical; details: 35 °C; for spreading / monolayer formation on the aqueous surface: PBS
Experimental: as §1
The lipid mixtures dissolved in chloroform or the formulations were spread onto the air-buffer interface of either a KSV minitrough (Helsinki, Finland) or a KSV large trough which was filled with PBS buffer. Chloroform was allowed to evaporate for 3 min before starting measurements. The surface pressure was measured using a Wilhelmy plate, the surface potential was measured using a KSV surface potential sensor (Espoo, Finland) and Brewster angle microscopy images were captured using a KSV NIMA microBAM (Espoo, Finland) instrument. The films were compressed at a constant rate of 5 or 10 mm/min and the subphase temperature was kept at 35±1° C. The measurements were performed in an acrylic box under an ozone-free atmosphere to prevent undesired oxidation. An ozone-free atmosphere was generated by passing dry air through ODS-3P ozone destruct unit (Ozone solutions, Hull, Iowa) at a rate of 76 l/min within the enclosure.
The organizational behavior of FAHFA/OAHFA and wax ester mixtures were investigated by measuring surface pressure and surface potential isotherms, and, imaging the monolayer structure with a Brewster angle microscope. A phosphate buffered saline (PBS) solution was used as an in vitro model of the ocular surface and the measurements were conducted at physiological temperature (35° C.). With this model system, it is possible to accurately simulate the conditions residing on the ocular surface and the changes occurring during a blink of the eye, both in terms of surface pressure and the capabilities of the monolayer to respread over many compression-expansion cycles. Thus, the study protocol provides the essential information required for evaluating the suitability of the composition in the intended applications. More details on the study protocol can be found in the inventors' previous publications on the topic (Paananen, Ekholm et. al. in Langmuir 2019, Ocul. Surf. 2020, J. Org. Chem. 2021).

SMILES | maximum evaporation resistance [1] [s/cm] | spreading / monolayer formation on the aqueous surface [2] | mean molecular area at surface pressure lift-off ([2]; pure lipid on PBS) [Å^2/molecule] | surface pressure at transition to a solid monolayer ([2]; pure lipid on PBS) [mN/m] | melting point [°C]
CCCCCCCC/C=C\CCCCCCCC(=O)OCCCCCCCCCCCCCCCCCCCC(=O)O [Example 20-OAHFA, 20-(oleoyloxy)eicosanoic acid] | 3 to 5 | form liquid monolayers upon spreading | 140 | 2 | 
CCCCCCCC/C=C\CCCCCCCC(=O)OCCCCCCCCCCCCCCCCCCCCCCCC(C)C [Example 5, 24-methylpentacosyl oleate] |  |  |  |  | 36 to 37.5
CCCCCCCC/C=C\CCCCCCCC(=O)OCCCCCCCCCCCCCCCCCCCCCC [BO, behenyl oleate] |  | did not spread on the aqueous surface but formed solid aggregates instead |  |  | 
CCCCCCCC/C=C\CCCCCCCC(=O)OCCCCCCCCCCCCCCCCCCCC [AO, arachidyl oleate] |  | form liquid monolayers upon spreading | 70 |  | 
